Experimental findings from patent US11014902B2, “MYC G-quadruplex stabilizing small molecules and their use” (The United States of America, as represented by the …, priority 2015, dated 2021) are described below.

Molecules are shown by their SMILES.

The test system of the assay is c-MYC G4 DNA (biotin-labeled Pu22 G-quadruplex). Put plainly: Surface plasmon resonance (SPR). The format is binding. To be noted: same experiment as Compound 1. The procedure: In order to quantitatively assess the binding affinity of Compound 1 with the c-MYC G4, surface plasmon resonance (SPR) experiments (De Crescenzo, et al., Cell Mol Bioeng 2008, 1, 204) were performed using a biotinylated c-MYC G4 oligonucleotide. The oligonucleotide was immobilized to a streptavidin-coated chip, and binding was measured as a function of concentration. (FIG. 2). […] Furthermore, Compound 1 interacts with quadruplex DNA through a reversible binding interaction, and rapid, complete dissociation can be observed in the sensogram (FIG. 2C).
SPR experiments were performed with a Biacore T200 (GE Healthcare). […] The c-MYC DNA was then captured (FC2: 1245 Ru) on a Series S Sensor CM5 Chip (GE Healthcare) with amine-coupled Neutravidin (FC1: 4466 Ru, FC2: 5458 Ru). Single Cycle Kinetics (SCK) experiments were carried out with five injections of increasing concentration of analyte solution, which was prepared by a three-fold serial dilution of compound with buffer (10 mM Tris pH 7.5, 100 mM KCl, 3 mM EDTA) containing 3% DMSO. Binding analysis was conducted at a flow rate of 30 μL/min at 25° C. In each run, the association phase and the subsequent dissociation phase were monitored for 1 min and 10 min, respectively. Prior to each compound injection, three buffer injections were made. […]

On to `CN1CCC[C@H]1CCNC(=O)c1cn2c3c(c(N4CCC(c5cnccn5)C4)c(F)cc3c1=O)Oc1cc3ccccc3cc1-2` (stereo partly shown) [Quarfloxin, reference compound], for which the “binding (SPR)” value is reported as “no evidence of binding”.
